Measurements published in the kinase profiling compilation of Christmann-Franck et al. (2016).
Several values for one entry are separate records, joined by “and”; a condition that tells them apart may be missing. Equal entries are not always repeated.

Assays:
Test in all cases: radiometric filter-binding kinase assay, Kinase HotSpot
Details in all cases: compound 0.5 µM; ATP 10 µM
LYN (human) = LYN (human) (UniProt P07948)
ABL1 (human) = ABL1 (human) (UniProt P00519)
NEK9 (human) = NEK9 (human) (UniProt Q8TD19)
NEK3 (human) = NEK3 (human) (UniProt P51956)
DYRK2 (human) = DYRK2 (human) (UniProt Q92630)
EPHA6 (human) = EPHA6 (human) (UniProt Q9UF33)
IRAK4 (human) = IRAK4 (human) (UniProt Q9NWZ3)
MET (human) = MET (human) (UniProt P08581)
LIMK1 (human) = LIMK1 (human) (UniProt P53667)
MAP3K9 (human) = MAP3K9 (human) (UniProt P80192)
PHKG2 (human) = PHKG2 (human) (UniProt P15735)
TGFBR1 (human) = TGFBR1 (human) (UniProt P36897)
FGFR4 (human) = FGFR4 (human) (UniProt P22455)
STK25 (human) = STK25 (human) (UniProt O00506)
TLK2 (human) = TLK2 (human) (UniProt Q86UE8)
PRKCD (human) = PRKCD (human) (UniProt Q05655)
RPS6KA6 KD1 KD2 (human) = RPS6KA6 KD1 KD2 (human) (UniProt Q9UK32)
TEC (human) = TEC (human) (UniProt P42680)
NUAK2 (human) = NUAK2 (human) (UniProt Q9H093)
TSSK2 (human) = TSSK2 (human) (UniProt Q96PF2)
IGF1R (human) = IGF1R (human) (UniProt P08069)
CAMK1G (human) = CAMK1G (human) (UniProt Q96NX5)
NEK6 (human) = NEK6 (human) (UniProt Q9HC98)
STK16 (human) = STK16 (human) (UniProt O75716)
SRMS (human) = SRMS (human) (UniProt Q9H3Y6)
ADRBK2 (human) = ADRBK2 (human) (UniProt P35626)
ACVR1 (human) = ACVR1 (human) (UniProt Q04771)
PHKG1 (human) = PHKG1 (human) (UniProt Q16816)
BRAF (human) = BRAF (human) (UniProt P15056)
CDC42BPB (human) = CDC42BPB (human) (UniProt Q9Y5S2)
EPHB4 (human) = EPHB4 (human) (UniProt P54760)
DSTYK (human) = DSTYK (human) (UniProt Q6XUX3)
EPHB3 (human) = EPHB3 (human) (UniProt P54753)
CDC42BPA (human) = CDC42BPA (human) (UniProt Q5VT25)
DAPK2 (human) = DAPK2 (human) (UniProt Q9UIK4)
CHEK1 (human) = CHEK1 (human) (UniProt O14757)
ADRBK1 (human) = ADRBK1 (human) (UniProt P25098)
PTK2 (human) = PTK2 (human) (UniProt Q05397)
PDGFRA (human) = PDGFRA (human) (UniProt P16234)
RAF1 (human) = RAF1 (human) (UniProt P04049)

NEK3 (human), sequence (P51956 whole entry, looked up): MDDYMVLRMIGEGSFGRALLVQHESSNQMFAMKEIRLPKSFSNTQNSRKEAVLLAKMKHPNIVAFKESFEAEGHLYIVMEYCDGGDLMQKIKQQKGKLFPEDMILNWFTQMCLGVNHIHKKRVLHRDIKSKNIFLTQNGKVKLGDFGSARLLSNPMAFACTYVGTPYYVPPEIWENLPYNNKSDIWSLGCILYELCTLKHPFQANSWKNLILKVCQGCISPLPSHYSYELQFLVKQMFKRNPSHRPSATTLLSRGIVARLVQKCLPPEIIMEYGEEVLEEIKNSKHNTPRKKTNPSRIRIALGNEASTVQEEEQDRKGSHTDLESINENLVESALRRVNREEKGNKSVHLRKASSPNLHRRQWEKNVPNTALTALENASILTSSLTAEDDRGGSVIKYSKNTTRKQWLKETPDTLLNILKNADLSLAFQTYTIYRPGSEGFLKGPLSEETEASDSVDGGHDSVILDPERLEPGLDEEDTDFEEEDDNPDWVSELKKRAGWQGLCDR
PRKCD (human), sequence (Q05655 whole entry, looked up): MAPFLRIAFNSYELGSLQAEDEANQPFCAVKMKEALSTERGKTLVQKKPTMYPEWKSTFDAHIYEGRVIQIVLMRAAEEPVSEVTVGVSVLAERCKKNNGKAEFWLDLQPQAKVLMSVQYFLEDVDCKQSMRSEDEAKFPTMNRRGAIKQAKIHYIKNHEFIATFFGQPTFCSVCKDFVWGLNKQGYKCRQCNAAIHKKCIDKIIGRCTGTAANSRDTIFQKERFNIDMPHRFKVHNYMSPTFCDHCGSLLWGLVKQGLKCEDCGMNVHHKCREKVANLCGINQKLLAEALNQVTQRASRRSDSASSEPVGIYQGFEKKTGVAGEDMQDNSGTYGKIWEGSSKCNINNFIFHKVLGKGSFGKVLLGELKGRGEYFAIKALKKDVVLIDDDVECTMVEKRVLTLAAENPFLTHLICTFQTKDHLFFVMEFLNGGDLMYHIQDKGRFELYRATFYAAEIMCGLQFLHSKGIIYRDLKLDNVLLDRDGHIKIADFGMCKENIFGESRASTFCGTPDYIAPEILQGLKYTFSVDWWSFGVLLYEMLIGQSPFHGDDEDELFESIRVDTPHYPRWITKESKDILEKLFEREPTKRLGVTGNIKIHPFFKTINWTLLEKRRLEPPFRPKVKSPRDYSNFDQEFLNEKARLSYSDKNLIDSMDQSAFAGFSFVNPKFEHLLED
NEK9 (human), sequence (Q8TD19 whole entry, looked up): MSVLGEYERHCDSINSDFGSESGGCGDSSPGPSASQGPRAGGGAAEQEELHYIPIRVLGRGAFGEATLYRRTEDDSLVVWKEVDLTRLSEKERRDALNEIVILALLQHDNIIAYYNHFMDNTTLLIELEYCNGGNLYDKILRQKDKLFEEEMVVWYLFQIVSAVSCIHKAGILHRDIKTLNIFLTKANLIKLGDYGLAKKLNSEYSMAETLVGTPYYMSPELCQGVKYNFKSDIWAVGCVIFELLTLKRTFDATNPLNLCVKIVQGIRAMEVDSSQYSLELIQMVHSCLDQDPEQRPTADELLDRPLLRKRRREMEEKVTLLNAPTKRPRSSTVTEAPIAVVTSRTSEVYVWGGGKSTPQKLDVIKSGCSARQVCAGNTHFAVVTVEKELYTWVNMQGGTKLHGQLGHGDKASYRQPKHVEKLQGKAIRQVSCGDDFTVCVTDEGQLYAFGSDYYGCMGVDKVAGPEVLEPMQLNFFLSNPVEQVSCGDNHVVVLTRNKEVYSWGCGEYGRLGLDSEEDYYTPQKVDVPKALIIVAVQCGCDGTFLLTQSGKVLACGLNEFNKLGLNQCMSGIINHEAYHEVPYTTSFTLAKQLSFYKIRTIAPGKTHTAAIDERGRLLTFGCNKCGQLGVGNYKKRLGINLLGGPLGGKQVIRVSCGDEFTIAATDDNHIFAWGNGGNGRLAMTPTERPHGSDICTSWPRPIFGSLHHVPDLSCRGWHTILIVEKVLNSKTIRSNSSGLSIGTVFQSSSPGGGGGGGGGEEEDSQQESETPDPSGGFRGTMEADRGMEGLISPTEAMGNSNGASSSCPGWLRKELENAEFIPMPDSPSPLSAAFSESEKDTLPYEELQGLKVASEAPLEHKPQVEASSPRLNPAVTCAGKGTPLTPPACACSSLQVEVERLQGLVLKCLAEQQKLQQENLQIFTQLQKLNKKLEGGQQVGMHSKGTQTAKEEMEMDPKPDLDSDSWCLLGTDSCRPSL
EPHB4 (human), sequence (P54760 whole entry, looked up): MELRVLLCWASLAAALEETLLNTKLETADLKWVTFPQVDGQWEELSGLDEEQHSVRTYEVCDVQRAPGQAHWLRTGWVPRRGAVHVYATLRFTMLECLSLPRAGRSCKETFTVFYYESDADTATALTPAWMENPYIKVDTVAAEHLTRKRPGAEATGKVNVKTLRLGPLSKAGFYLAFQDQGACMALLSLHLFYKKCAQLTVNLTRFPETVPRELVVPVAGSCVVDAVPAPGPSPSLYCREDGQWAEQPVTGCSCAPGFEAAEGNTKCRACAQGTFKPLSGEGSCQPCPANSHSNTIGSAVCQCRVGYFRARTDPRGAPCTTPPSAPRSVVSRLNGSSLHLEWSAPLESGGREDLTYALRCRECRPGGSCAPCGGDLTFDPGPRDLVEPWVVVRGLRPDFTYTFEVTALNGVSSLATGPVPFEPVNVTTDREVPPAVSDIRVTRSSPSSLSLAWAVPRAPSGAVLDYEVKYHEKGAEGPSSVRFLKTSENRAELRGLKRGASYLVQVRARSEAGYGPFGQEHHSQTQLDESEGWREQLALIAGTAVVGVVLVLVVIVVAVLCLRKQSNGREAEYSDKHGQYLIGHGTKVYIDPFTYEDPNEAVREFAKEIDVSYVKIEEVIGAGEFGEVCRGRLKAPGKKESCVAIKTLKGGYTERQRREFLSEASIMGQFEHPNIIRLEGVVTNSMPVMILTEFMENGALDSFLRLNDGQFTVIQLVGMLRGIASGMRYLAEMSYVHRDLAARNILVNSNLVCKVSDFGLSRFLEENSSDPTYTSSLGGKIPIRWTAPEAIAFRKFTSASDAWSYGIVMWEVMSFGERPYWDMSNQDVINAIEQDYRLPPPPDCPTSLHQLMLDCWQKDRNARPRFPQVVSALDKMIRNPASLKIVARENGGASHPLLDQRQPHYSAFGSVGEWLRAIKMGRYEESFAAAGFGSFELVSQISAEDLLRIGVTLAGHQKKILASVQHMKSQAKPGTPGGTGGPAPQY
ADRBK1 (human), sequence (P25098 whole entry, looked up): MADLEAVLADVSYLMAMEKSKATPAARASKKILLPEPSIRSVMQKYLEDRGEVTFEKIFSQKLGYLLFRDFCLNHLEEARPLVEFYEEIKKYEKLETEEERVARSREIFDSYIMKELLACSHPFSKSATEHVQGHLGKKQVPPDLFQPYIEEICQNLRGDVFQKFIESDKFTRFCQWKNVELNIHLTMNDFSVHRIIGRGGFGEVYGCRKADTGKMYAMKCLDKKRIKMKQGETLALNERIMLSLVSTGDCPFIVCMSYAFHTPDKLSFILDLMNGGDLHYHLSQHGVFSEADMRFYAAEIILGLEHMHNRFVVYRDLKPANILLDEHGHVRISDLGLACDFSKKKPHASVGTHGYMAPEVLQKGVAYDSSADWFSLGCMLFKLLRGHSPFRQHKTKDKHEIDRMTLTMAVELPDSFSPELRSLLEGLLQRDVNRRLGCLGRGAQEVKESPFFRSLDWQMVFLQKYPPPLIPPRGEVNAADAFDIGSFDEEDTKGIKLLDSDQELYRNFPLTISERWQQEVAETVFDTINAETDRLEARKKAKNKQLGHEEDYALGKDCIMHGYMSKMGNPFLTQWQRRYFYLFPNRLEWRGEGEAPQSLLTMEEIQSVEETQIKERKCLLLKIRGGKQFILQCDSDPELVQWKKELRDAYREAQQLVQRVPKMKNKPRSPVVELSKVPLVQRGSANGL
TSSK2 (human), sequence (Q96PF2 whole entry, looked up): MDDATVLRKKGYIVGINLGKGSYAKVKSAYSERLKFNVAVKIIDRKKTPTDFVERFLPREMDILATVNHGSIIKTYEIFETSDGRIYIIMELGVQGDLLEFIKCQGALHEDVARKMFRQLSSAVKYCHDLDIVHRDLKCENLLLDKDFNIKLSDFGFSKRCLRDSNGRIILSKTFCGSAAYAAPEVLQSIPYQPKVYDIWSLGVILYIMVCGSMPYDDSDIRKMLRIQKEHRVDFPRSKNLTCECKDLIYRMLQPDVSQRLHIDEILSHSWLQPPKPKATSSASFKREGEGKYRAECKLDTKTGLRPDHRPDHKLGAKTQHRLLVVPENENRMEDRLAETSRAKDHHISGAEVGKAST
LIMK1 (human), sequence (P53667 whole entry, looked up): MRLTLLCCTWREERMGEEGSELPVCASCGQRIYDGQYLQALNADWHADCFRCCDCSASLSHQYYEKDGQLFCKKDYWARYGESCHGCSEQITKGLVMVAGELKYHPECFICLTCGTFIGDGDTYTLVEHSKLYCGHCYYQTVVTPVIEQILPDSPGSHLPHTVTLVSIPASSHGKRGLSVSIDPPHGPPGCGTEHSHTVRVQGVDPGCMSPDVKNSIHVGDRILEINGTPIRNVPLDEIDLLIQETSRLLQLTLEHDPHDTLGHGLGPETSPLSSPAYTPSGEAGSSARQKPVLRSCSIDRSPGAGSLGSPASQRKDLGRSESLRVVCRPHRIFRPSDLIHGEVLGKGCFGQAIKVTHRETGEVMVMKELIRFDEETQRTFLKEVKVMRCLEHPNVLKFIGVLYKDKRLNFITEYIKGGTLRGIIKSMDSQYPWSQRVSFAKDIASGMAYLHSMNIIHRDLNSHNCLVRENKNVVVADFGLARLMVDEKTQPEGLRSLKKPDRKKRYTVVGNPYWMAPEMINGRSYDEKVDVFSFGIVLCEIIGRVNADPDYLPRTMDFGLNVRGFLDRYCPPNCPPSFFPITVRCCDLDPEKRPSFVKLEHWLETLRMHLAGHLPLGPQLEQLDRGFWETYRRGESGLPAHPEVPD

| Structure (SMILES) | residual activity (LYN (human)) | residual activity (ABL1 (human)) | residual activity (NEK9 (human)) | residual activity (NEK3 (human)) | residual activity (DYRK2 (human)) | residual activity (EPHA6 (human)) | residual activity (IRAK4 (human)) | residual activity (MET (human)) | residual activity (LIMK1 (human)) | residual activity (MAP3K9 (human)) | residual activity (PHKG2 (human)) | residual activity (TGFBR1 (human)) | residual activity (FGFR4 (human)) | residual activity (STK25 (human)) | residual activity (TLK2 (human)) | residual activity (PRKCD (human)) | residual activity (RPS6KA6 KD1 KD2 (human)) | residual activity (TEC (human)) | residual activity (NUAK2 (human)) | residual activity (TSSK2 (human)) | further results |
| --- | --- | --- | --- | --- | --- | --- | --- | --- | --- | --- | --- | --- | --- | --- | --- | --- | --- | --- | --- | --- | --- |
| O=C1NC(=O)/C(=C/c2ccc3c(c2)OC(F)(F)O3)S1 | 98.1% and 99.9% | 98.5% | 109% | 92.6% | 98.6% | 83.1% | 99.2% | 96.2% | 96.4% | 101% | 95.2% | 102% | 91% | 95.7% | 104% | 93.2% | 96.5% | 108% | 74.8% | 101% | residual activity (IGF1R (human)): 101%; residual activity (CAMK1G (human)): 107%; residual activity (NEK6 (human)): 113%; residual activity (STK16 (human)): 91%; residual activity (SRMS (human)): 103%; residual activity (ADRBK2 (human)): 102%; residual activity (ACVR1 (human)): 97.4%; residual activity (PHKG1 (human)): 94.2%; residual activity (BRAF (human)): 96.3%; residual activity (CDC42BPB (human)): 96.4%; residual activity (EPHB4 (human)): 100%; residual activity (DSTYK (human)): 89.3%; residual activity (EPHB3 (human)): 93.1%; residual activity (CDC42BPA (human)): 98.5%; residual activity (DAPK2 (human)): 105%; residual activity (CHEK1 (human)): 101%; residual activity (ADRBK1 (human)): 103%; residual activity (PTK2 (human)): 94.9%; residual activity (PDGFRA (human)): 103%; residual activity (RAF1 (human)): 95.5% |
| Cc1[nH]c(/C=C2\C(=O)Nc3ccc(S(=O)(=O)N(C)c4cccc(Cl)c4)cc32)c(C)c1C(=O)N1CCN(C)CC1 | 39.1% and 53.3% | 89.1% | 92.5% | 98.7% | 101% | 24% | 65.5% | 1.18% | 87.9% | 95.2% | 96% | 103% | 104% | 91% | 95.8% | 95.3% | 67.8% | 86.7% | 61.9% | 96.3% | residual activity (IGF1R (human)): 103%; residual activity (CAMK1G (human)): 92.5%; residual activity (NEK6 (human)): 104%; residual activity (STK16 (human)): 95.4%; residual activity (SRMS (human)): 104%; residual activity (ADRBK2 (human)): 103%; residual activity (ACVR1 (human)): 96.8%; residual activity (PHKG1 (human)): 45.2%; residual activity (BRAF (human)): 91.9%; residual activity (CDC42BPB (human)): 113%; residual activity (EPHB4 (human)): 95.4%; residual activity (DSTYK (human)): 97.2%; residual activity (EPHB3 (human)): 98.6%; residual activity (CDC42BPA (human)): 105%; residual activity (DAPK2 (human)): 111%; residual activity (CHEK1 (human)): 89.7%; residual activity (ADRBK1 (human)): 105%; residual activity (PTK2 (human)): 96.8%; residual activity (PDGFRA (human)): 72.8%; residual activity (RAF1 (human)): 114% |
| c1ccc(-c2n[nH]cc2-c2ccnc3ccccc23)nc1 | 100% and 87.8% | 77.1% | 94.7% | 90.2% | 113% | 98.8% | 87.7% | 94.1% | 103% | 90.4% | 97.7% | 41.6% | 80.6% | 96.9% | 98.6% | 96.6% | 112% | 106% | 135% | 83.5% | residual activity (IGF1R (human)): 102%; residual activity (CAMK1G (human)): 102%; residual activity (NEK6 (human)): 106%; residual activity (STK16 (human)): 100%; residual activity (SRMS (human)): 105%; residual activity (ADRBK2 (human)): 103%; residual activity (ACVR1 (human)): 106%; residual activity (PHKG1 (human)): 94.2%; residual activity (BRAF (human)): 95.7%; residual activity (CDC42BPB (human)): 102%; residual activity (EPHB4 (human)): 89.1%; residual activity (DSTYK (human)): 98.3%; residual activity (EPHB3 (human)): 97.1%; residual activity (DAPK2 (human)): 102%; residual activity (CHEK1 (human)): 99.7%; residual activity (ADRBK1 (human)): 101%; residual activity (PTK2 (human)): 99.3%; residual activity (PDGFRA (human)): 98.1%; residual activity (RAF1 (human)): 89.5% |
